In one test the test system is PC-3. Kind of test: Growth inhibition of human PC-3 cells incubated for 6 to 7 days by MTS assay. The conditions noted are these: time 6-7 day. Type of test: functional. For orientation: Tetrazolium assays rely on reduction of a dye to a coloured formazan, in cell work by metabolically active cells.
The next test concerns LNCaP. Kind of test: Growth inhibition of human LNCaP cells incubated for 6 to 7 days by MTS assay. The conditions noted are these: time 6-7 day. Type of test: functional.
The next test has as its system CWR22R. Kind of test: Growth inhibition of human 22Rv1 cells incubated for 6 to 7 days by MTS assay. Type of test: functional. The conditions noted are these: time 6-7 day.
Test [1] has as its target Lysine-specific histone demethylase 1A (Homo sapiens, UniProt O60341). Kind of test: Inhibition of recombinant human LSD1 using Histone H3 as fluorometric substrate incubated for 30 mins by HRP based plate reader assay.

SMILES strings stand for the structures.

`CCN(c1cc(-c2ccc([C@@H]3C[C@H]3NC(=O)OC(C)(C)C)cc2)cc(C(=O)NCc2c(C)cc(C)[nH]c2=O)c1C)C1CCOCC1` (racemic): the GI50 (in general, the concentration giving 50% growth inhibition) turned out to be 2.45 µM in the test on PC-3, 3.62 µM in the test with LNCaP and 5.12 µM in the test with CWR22R. The half-maximal inhibitory concentration (IC50) (commonly the concentration needed to halve the response being measured) in test [1] was greater than 3 µM.
For `CCN(c1cc(-c2ccc([C@@H]3C[C@H]3NCc3ccccc3OC)cc2)cc(C(=O)NCc2c(C)cc(C)[nH]c2=O)c1C)C1CCOCC1` (racemic), the 50% growth inhibitory concentration (GI50) is 6.41 µM in the test with PC-3, 5.45 µM in the test on LNCaP and 4.87 µM in the test on CWR22R.
`CCN(c1cc(-c2ccc([C@@H]3C[C@H]3N(C(=O)OC(C)(C)C)C3CCOCC3)cc2)cc(C(=O)NCc2c(C)cc(C)[nH]c2=O)c1C)C1CCOCC1` (racemic): the GI50 with PC-3 came out at 3.27 µM; in the test on LNCaP, 3.4 µM; with CWR22R it was 8.86 µM. Also, the IC50 in test [1] was greater than 3 µM.
Take `CCN(c1cc(-c2ccc([C@@H]3C[C@H]3N(Cc3ccccc3F)C(=O)OC(C)(C)C)cc2)cc(C(=O)NCc2c(C)cc(C)[nH]c2=O)c1C)C1CCOCC1` (racemic): the GI50 turned out to be 5.13 µM in the test with PC-3, 5.19 µM in the test on LNCaP and 7.13 µM in the test with CWR22R. Besides, the IC50 in test [1] was greater than 3 µM.
The corresponding values for `CCN(c1cc(-c2ccc([C@@H]3C[C@H]3N(CC(=O)N3CCN(C(=O)OC(C)(C)C)CC3)C(=O)OC(C)(C)C)cc2)cc(C(=O)NCc2c(C)cc(C)[nH]c2=O)c1C)C1CCOCC1` (racemic) are greater than 30 µM, 6.49 µM, 13.1 µM and greater than 3 µM.
With `CCN(c1cc(-c2ccc([C@@H]3C[C@H]3NC3CCCCC3)cc2)cc(C(=O)NCc2c(C)cc(C)[nH]c2=O)c1C)C1CCOCC1` (racemic), the GI50 stood at 12 µM in the test on PC-3, 5.34 µM in the test on LNCaP and 4.61 µM in the test with CWR22R.
The like results for `CCN(c1cc(-c2ccc([C@@H]3C[C@H]3NCC(=O)N3CCNCC3)cc2)cc(C(=O)NCc2c(C)cc(C)[nH]c2=O)c1C)C1CCOCC1` (racemic) were, in that order, greater than 30 µM, 4.09 µM and 18.9 µM.
The like results for `CCN(c1cc(-c2ccc([C@@H]3C[C@H]3NCc3ccccc3)cc2)cc(C(=O)NCc2c(C)cc(C)[nH]c2=O)c1C)C1CCOCC1` (racemic) were, in that order, 9.24 µM, 3.41 µM and 3.9 µM.
Turning to `CCN(c1cc(-c2ccc([C@@H]3C[C@H]3N(Cc3ccccc3OC)C(=O)OC(C)(C)C)cc2)cc(C(=O)NCc2c(C)cc(C)[nH]c2=O)c1C)C1CCOCC1` (racemic), the GI50 with PC-3 is greater than 30 µM; in the test on LNCaP, 16.9 µM; in the test on CWR22R, 16.7 µM. In test [1], the 50% inhibitory concentration (IC50) was greater than 3 µM.
The corresponding values for `CCN(c1cc(-c2cccc([C@H]3C[C@@H]3NC(=O)OC(C)(C)C)c2)cc(C(=O)NCc2c(C)cc(C)[nH]c2=O)c1C)C1CCOCC1` (racemic) are 19.3 µM, 7.22 µM, 21.7 µM and greater than 3 µM.
The like results for `CCN(c1cc(-c2ccc([C@@H]3C[C@H]3N(CC3CC3)C(=O)OC(C)(C)C)cc2)cc(C(=O)NCc2c(C)cc(C)[nH]c2=O)c1C)C1CCOCC1` (racemic) were, in that order, greater than 30 µM, 9.73 µM, 18.8 µM and greater than 3 µM.
`CCN(c1cc(-c2ccc([C@@H]3C[C@H]3NC3CCOCC3)cc2)cc(C(=O)NCc2c(C)cc(C)[nH]c2=O)c1C)C1CCOCC1` (racemic): the GI50 was found to be 12.7 µM with PC-3, 3.42 µM in the test on LNCaP and 4.39 µM in the test with CWR22R.
`CCN(c1cc(-c2ccc([C@@H]3C[C@H]3N(Cc3ccccc3)C(=O)OC(C)(C)C)cc2)cc(C(=O)NCc2c(C)cc(C)[nH]c2=O)c1C)C1CCOCC1` (racemic): the GI50 with PC-3 was greater than 30 µM; in the test with LNCaP, 13.8 µM; in the test with CWR22R, greater than 30 µM. Moreover, the IC50 in test [1] was greater than 3 µM.
Take `CCN(c1cc(-c2ccc([C@@H]3C[C@H]3N)cc2)cc(C(=O)NCc2c(C)cc(C)[nH]c2=O)c1C)C1CCOCC1` (racemic): the figures for the 50% growth inhibitory concentration (GI50) in the test on PC-3, with LNCaP and in the test on CWR22R were 23.9 µM, 6.83 µM and 16.3 µM, respectively.
For the compound `CCN(c1cc(-c2cccc([C@H]3C[C@@H]3N(CC3CCOCC3)C(=O)OC(C)(C)C)c2)cc(C(=O)NCc2c(C)cc(C)[nH]c2=O)c1C)C1CCOCC1` (racemic), the GI50 in the test on PC-3 came to 3.68 µM; in the test on LNCaP it was 3.38 µM; in the test with CWR22R it was 6.05 µM. The IC50 in test [1] was greater than 3 µM.
Turning to `CCN(c1cc(-c2ccc([C@@H]3C[C@H]3NCc3ccccc3F)cc2)cc(C(=O)NCc2c(C)cc(C)[nH]c2=O)c1C)C1CCOCC1` (racemic), the figures for the GI50 in the test with PC-3, in the test with LNCaP and in the test on CWR22R were greater than 30 µM, 5.39 µM and 27.4 µM, respectively.
The corresponding values for `CCN(c1cc(-c2cccc([C@@H]3C[C@H]3NCC3CCOCC3)c2)cc(C(=O)NCc2c(C)cc(C)[nH]c2=O)c1C)C1CCOCC1` (racemic) are 10.2 µM, 5.7 µM and 4.81 µM.
The like results for `CCN(c1cc(-c2ccc([C@@H]3C[C@H]3NCC(=O)N3CCOCC3)cc2)cc(C(=O)NCc2c(C)cc(C)[nH]c2=O)c1C)C1CCOCC1` (racemic) were, in that order, greater than 30 µM, 6.01 µM and 19.7 µM.
As for `CCN(c1cc(-c2cccc([C@H]3C[C@@H]3N(C(=O)OC(C)(C)C)C3CCOCC3)c2)cc(C(=O)NCc2c(C)cc(C)[nH]c2=O)c1C)C1CCOCC1` (racemic), the concentration for 50% growth inhibition (GI50) in the test on PC-3 came out at 3.87 µM; in the test on LNCaP, 3.47 µM; in the test on CWR22R, 6.92 µM. The IC50 in test [1] was greater than 3 µM.
The corresponding values for `CCN(c1cc(-c2ccc([C@@H]3C[C@H]3N(C(=O)OC(C)(C)C)C3CCCCC3)cc2)cc(C(=O)NCc2c(C)cc(C)[nH]c2=O)c1C)C1CCOCC1` (racemic) are 18.1 µM, 5.02 µM, 24.3 µM and greater than 3 µM.
With `CCN(c1cc(-c2ccc([C@@H]3C[C@H]3NCC3CC3)cc2)cc(C(=O)NCc2c(C)cc(C)[nH]c2=O)c1C)C1CCOCC1` (racemic), the GI50 with PC-3 is greater than 30 µM; in the test with LNCaP, 13.8 µM; with CWR22R it was 10.4 µM.
As for `CCN(c1cc(-c2cccc([C@@H]3C[C@H]3NC3CCOCC3)c2)cc(C(=O)NCc2c(C)cc(C)[nH]c2=O)c1C)C1CCOCC1` (racemic), the GI50 with PC-3 was greater than 30 µM; with LNCaP, 21 µM; in the test on CWR22R, 10.1 µM.
On to `CCN(c1cc(-c2cccc([C@@H]3C[C@H]3N)c2)cc(C(=O)NCc2c(C)cc(C)[nH]c2=O)c1C)C1CCOCC1` (racemic), for which the GI50 in the test on PC-3 came out at 13.5 µM; with LNCaP it was 12.4 µM; in the test on CWR22R, 26.2 µM. Moreover, the IC50 in test [1] is greater than 3 µM.
`N[C@@H]1C[C@H]1c1ccccc1.N[C@H]1C[C@@H]1c1ccccc1` (racemic) [TRANYLCYPROMINE]: the GI50 in the test on PC-3 and in the test on LNCaP was greater than 30 µM in each case.
Take `CCN(c1cc(-c2ccc([C@@H]3C[C@H]3N(CC(=O)N3CCOCC3)C(=O)OC(C)(C)C)cc2)cc(C(=O)NCc2c(C)cc(C)[nH]c2=O)c1C)C1CCOCC1` (racemic): the GI50 in the test with PC-3 is 12.6 µM; in the test with LNCaP, 5.11 µM; in the test with CWR22R, 7.83 µM. For the same compound, the IC50 in test [1] is greater than 3 µM.
